# Patent US20230302032A1, “ANTIBACTERIAL COMPOSITIONS AND METHODS FOR FABRICATING THEREOF” (Harrow IP LLC, priority 2020, published 2023)
# Read-outs that look alike come from different tables or passages of the source.
# Legend:
# [1] = HPLC potency and stability of stored antibiotic solutions; settings: for Stability of the composition (assay %): composition of Example 2 (with L-glycine);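 for all read-outs here: stored antibiotic compositions assayed by HPLC for remaining potency, USP acceptance requires at least 90% of nominal concentration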
# Protocol: The final product was tested chromatographically (HPLC) for potency and stability after being stored for 6 months. […] According to the USP rules, at least a 90% concentration is required for the product to be acceptable.
# The stability of this composition was then monitored for a period of 180 days.
compound,measurement,setting,value
"NC[C@H]1O[C@H](O[C@H]2[C@H](O)[C@@H](O[C@H]3O[C@H](CO)[C@@H](O)[C@H](N)[C@H]3O)[C@H](N)C[C@@H]2N)[C@H](N)C[C@@H]1O [Tobramycin, (2S,3R,4S,5S,6R)-4-amino-2-{[(1S,2S,3R,4S,6R)-4,6-diamino-3-{[(2R,3R,5S,6R)-3-amino-6-(aminomethyl)-5-hydroxyoxan-2-yl]oxy}-2-hydroxycyclohexyl]oxy}-6-(hydroxymethyl)oxane-3,5-diol]",Stability of the composition (assay %),0 days,102.3%
same,Stability of the composition (assay %),30 days,106.9%
same,Stability of the composition (assay %),60 days,98.9%
same,Stability of the composition (assay %),90 days,97.6%
same,Stability of the composition (assay %),180 days,97.9%
same,storage stability alone,180 days,withstood the storage for 180 days very well
Vancomycin,"Stability result, % (HPLC potency)","[1]; Tobramycin-Vancomycin System, aqueous solution, 1.5 % tobramycin, 5% vancomycin, no lidocaine, stored at −4° C. in a dark place, Day 0",108%
same,"Stability result, % (HPLC potency)","[1]; Tobramycin-Vancomycin System, aqueous solution, 1.5 % tobramycin, 5% vancomycin, no lidocaine, stored at −4° C. in a dark place, Day 30",108%
same,"Stability result, % (HPLC potency)","[1]; Tobramycin-Vancomycin System, aqueous solution, 1.5 % tobramycin, 5% vancomycin, no lidocaine, stored at −4° C. in a dark place, Day 60",106%
same,"Stability result, % (HPLC potency)","[1]; Tobramycin-Vancomycin System, aqueous solution, 1.5 % tobramycin, 5% vancomycin, no lidocaine, stored at −4° C. in a dark place, Day 90",107%
same,"Stability result, % (HPLC potency)","[1]; Tobramycin-Vancomycin System, aqueous solution, 1.5 % tobramycin, 5% vancomycin, no lidocaine, stored at −4° C. in a dark place, Day 120",91%
same,"Stability result, % (HPLC potency)","[1]; Tobramycin-Vancomycin System, aqueous solution, 1.5 % tobramycin, 5% vancomycin, no lidocaine, stored at −4° C. in a dark place, Day 150",83%
same,"Stability result, % (HPLC potency)","[1]; Tobramycin-Vancomycin System, aqueous solution, 1.5 % tobramycin, 5% vancomycin, no lidocaine, stored at −4° C. in a dark place, Day 180",81%
same,"Stability result, % (HPLC potency)","[1]; Vancomycin alone, 5.0 % aqueous solution, stored in a dark place at room temperature, Day 0",113%
same,"Stability result, % (HPLC potency)","[1]; Vancomycin alone, 5.0 % aqueous solution, stored in a dark place at room temperature, Day 30",106%
same,"Stability result, % (HPLC potency)","[1]; Vancomycin alone, 5.0 % aqueous solution, stored in a dark place at room temperature, Day 60",111%
same,"Stability result, % (HPLC potency)","[1]; Vancomycin alone, 5.0 % aqueous solution, stored in a dark place at room temperature, Day 90",106%
same,concentration of vancomycin,"[1]; after 120 days storage, system having no lidocaine (Table 4)",≤ 91%
same,Stability of the composition (assay %),[1]; Day 0,104.9%
same,Stability of the composition (assay %),[1]; Day 30,104.0%
same,Stability of the composition (assay %),[1]; Day 60,99.1%
same,Stability of the composition (assay %),[1]; Day 90,99.8%
same,Stability of the composition (assay %),[1]; Day 180,100.5%
same,storage stability alone,"[1]; each antibiotic alone, 180 days (Tables 2 and 3)",withstood the storage for 180 days very well
same,concentration of vancomycin,"[1]; same storage times (120 days and after), lidocaine present in the composition (Table 1)",at least 108%
